Experimental data as given in patent US10828290B2, “Thiazolecarboxamides and pyridinecarboxamide compounds useful as pim kinase inhibitors” (Incyte Corporation, priority 2013, dated 2020).
Where two headings read alike, the source gives them in different places.

Legend:
Assay type in all cases: biochemical
Pim-1 = Pim-1 (Homo sapiens (Human), UniProt P11309); experiment: Pim-1 kinase assay; details: 1 mM ATP; class symbols; read-out: Pim1 IC50
Protocol: Supplementation of the STOP buffer with beads and stopping the reactions were done under reduced light. Prior to the stopping reactions STOP buffer with beads was pre-incubated for 1 h in the dark at room temperature. After stopping the reactions, plates were incubated for 1 h in the dark at room temperature before reading on a PHERAstar FS plate reader (BMG Labtech) under reduced light.

Pim-2 = Pim-2 (Homo sapiens (Human), UniProt Q9P1W9); experiment: Pim-2 kinase assay
Protocol: Pim-2 kinase assay—20 μL reactions were run in white 384 well polystyrene plates dotted with 0.8 μL compound/DMSO in the assay buffer (50 mM Tris, pH 7.5, 0.01% Tween-20, 5 mM MgCl2, 0.01% BSA, 5 mM DTT), containing 0.05 μM Fluorescein-labeled CREBtide peptide substrate (Invitrogen PV3508), 1 mM ATP, and 1 nM enzyme (Invitrogen PV3649) for 2 h at 25° C. Reactions were stopped by addition of 10 μL TR-FRET Dilution Buffer (Invitrogen PV3574) with 30 mM EDTA and 1.5 nM LanthaScreen Tb-CREB pSer133 antibody (Invitrogen PV3566). After 30 min. incubation at room temperature, plates were read on a PHERAstar FS plate reader (BMG Labtech).
Although the above in vitro assays are conducted at 1 mM ATP compounds can also be evaluated for potency and in vitro activity against PIM targets utilizing Km conditions, where the concentration of ATP is set to the Km value and the assay is more sensitive to PIM inhibition activity.

Pim-3 = Pim-3 (Homo sapiens (Human), UniProt Q86V86); experiment: Pim-3 kinase assay; details: 1 mM ATP; class symbols; read-out: Pim3 IC50
Protocol: Pim-1 and Pim-3 kinase assays—20 μL reactions were run in white 384 well polystyrene plates dotted with […] in the assay buffer (50 mM Tris, pH 7.5, 0.01% Tween-20, 5 mM MgCl2, 0.01% BSA, 5 mM DTT), containing 0.05 μM Biotin-labeled BAD peptide substrate (AnaSpec 62269), 1 mM ATP, and 2.5 pM (Pim-1, Invitrogen PV3503) or 1.25 pM (Pim-3, Millipore 14-738) enzyme for 1 h at 25° C. Reactions were stopped by addition of 10 μL STOP Buffer (150 mM Tris, pH=7.5, 150 mM NaCl, 75 mM EDTA, 0.01% Tween-20, 0.3% BSA) supplemented with Phospho-Bad (Ser112) Antibody (Cell Signaling 9291) diluted 666-fold, and Streptavidin donor beads (PerkinElmer 6760002) along with Protein-A acceptor beads (PerkinElmer 6760137) at 15 μg/mL each. Supplementation of the STOP buffer with beads and stopping the reactions were done under reduced light. Prior to the stopping reactions STOP buffer with beads was pre-incubated for 1 h in the dark at room temperature. After stopping the reactions, plates were incubated for 1 h in the dark at room temperature before reading on a PHERAstar FS plate reader (BMG Labtech) under reduced light.

Sequence of Pim-2 (Q9P1W9 whole entry): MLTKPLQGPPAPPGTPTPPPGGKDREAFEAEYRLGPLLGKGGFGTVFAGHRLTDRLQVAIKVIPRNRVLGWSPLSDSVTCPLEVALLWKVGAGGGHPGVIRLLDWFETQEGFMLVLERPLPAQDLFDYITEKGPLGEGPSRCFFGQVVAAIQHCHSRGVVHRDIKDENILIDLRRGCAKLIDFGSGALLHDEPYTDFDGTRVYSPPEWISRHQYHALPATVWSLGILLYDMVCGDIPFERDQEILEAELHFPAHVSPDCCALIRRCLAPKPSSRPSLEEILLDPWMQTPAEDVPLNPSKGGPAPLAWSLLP
Sequence of Pim-1 (P11309 whole entry): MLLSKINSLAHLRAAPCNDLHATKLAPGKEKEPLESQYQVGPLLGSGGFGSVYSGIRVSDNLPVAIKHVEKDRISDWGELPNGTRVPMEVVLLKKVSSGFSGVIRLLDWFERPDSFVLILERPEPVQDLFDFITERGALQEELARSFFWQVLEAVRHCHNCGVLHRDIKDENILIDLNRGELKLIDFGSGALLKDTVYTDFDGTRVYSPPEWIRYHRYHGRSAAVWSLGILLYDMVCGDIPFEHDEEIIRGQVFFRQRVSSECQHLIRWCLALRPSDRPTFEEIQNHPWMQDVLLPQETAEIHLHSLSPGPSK

C[C@H]1CN(c2c(NC(=O)c3ccc(F)c(-c4c(F)cccc4F)n3)cnc3c2CCC3O)C[C@@H](N)[C@@H]1O (mixture of isomers) [Example 37 (mixture of diastereoisomers), N-{4-[(3R,4R,5S)-3-Amino-4-hydroxy-5-methylpiperidin-1-yl]-7-hydroxy-6,7-dihydro-5H-cyclopenta[b]pyridin-3-yl}-6-(2,6-difluorophenyl)-5-fluoropyridine-2-carboxamide]
IC50 (Pim-1): ≤ 100 nM
IC50 (Pim-2; 1 mM ATP, class symbols, read-out: Pim2 IC50): ≤ 100 nM
IC50 (Pim-3): ≤ 100 nM

N[C@H]1CCCN(c2c(NC(=O)c3csc(-c4c(F)cccc4F)n3)cnc3ccccc23)C1 [Example 2, N-{4-[(3S)-3-Aminopiperidin-1-yl]quinolin-3-yl}-2-(2,6-difluorophenyl)-1,3-thiazole-4-carboxamide]
IC50 (Pim-2; Km ATP concentration rather than 1 mM, read-out: Pim2 IC50 at Km ATP concentration): 100 to 1000 nM
